Data: patent US4230879A, “15-Deoxy-16-hydroxy-16-formyo or dimethoxy-methyl-prostane derivatives of the E and F series” (American Cyanamid Company, priority 1979, dated 1980)

Test system: Histamine
Test: KONZETT (Histamine)
Format: in vivo
Conditions: spasmogen histamine

## CCCCC(O)(C=O)C/C=C/[C@H]1[C@H](O)CC(=O)[C@@H]1CCCCCCC(=O)O (relative stereo) [dl-11α,16α/β-dihydroxy-9-oxo-16-formyl-13-trans-prostenoic acid]
  ED50: 8.89 µg/kg
